{"source": "the NIST ThermoML archive (doi:10.1016/j.jct.2015.08.035)", "key": {"[1]": {"experiment": "Molar enthalpy of transition or fusion", "settings": "Crystal; DSC"}, "[2]": {"settings": "Crystal; DTA"}}, "note": "Numbers after ± are expanded uncertainties."}
{"smiles": "CC1=C(O)C(=O)C(C)O1", "note": "(configuration not stated) [4-hydroxy-2,5-dimethyl-3(2H)-furanone]", "values": [{"measurement": "Molar enthalpy of transition or fusion", "setting": "[1]", "value": "4.47 ± 0.263", "unit": "kcal/mol"}, {"measurement": "Normal melting temperature", "setting": "[2]", "value": "82.07 ± 1.1", "unit": "°C"}]}
